“And” between values parts separate entries of the source, which are not always exact repeats. Equal entries are not always repeated. “Also recorded” adds a separate entry of the source. Where two headings read alike, the source gives them in different places.
What was measured:
M-6 melanoma = assay: Morphologic parameters of M-6 melanoma in nude mice (light microscopy); format: in vivo, mouse (mouse (mouse (mouse (mouse (mouse (mouse (mouse (mouse (mouse (mouse (mouse (human melanoma xenograft) melanoma xenograft) melanoma xenograft) melanoma xenograft) melanoma xenograft) melanoma xenograft) melanoma xenograft) melanoma xenograft) melanoma xenograft) melanoma xenograft) melanoma xenograft) melanoma xenograft)
Method: The study was conducted on 10-12 week old thymus free (nude) female Balb/C mice weighing 20-22 grams (breeding of the Russian Cancer Research Center (RCRC) named after N. N. Blokhin of the Russian Academy of Medical Sciences (RAMS)). A human melanoma strain earlier obtained from primary clinical material was taken from the bank of tumor strains of the RCRC of the RAMS for transplantation to thymus free “nude” mice. Tumor was disintegrated by Versen solution with vital Trypan blue staining and inoculated subcutaneously to mice in the amount of 1.6 million cells per mouse.
Dicarbamine was administered to mice intragastrically using a metal probe daily at dose 1.0 mg/kg beginning 4 days before the tumor inoculation and thereafter for 10-11 days (administration course up to 15 days). The mice were sacrificed with ether anesthesia in 12, 24 and 48 hours after the last administration.
Four morphologic parameters, such as the number of cells with pigment and the number of cells with apoptosis signs (capability to differentiate), the number of mitoses (proliferation activity), and necrosis area, were determined to monitor the degree of differentiation and proliferation of M-6 melanoma cells in the groups of control animals and in the Dicarbamine groups. These parameters were determined dynamically and correlated with general morphologic picture of a tumor growth as an integral sign. For this purpose, the tumors were removed from the mice, placed into formalin, and histologically processed for light microscopy.

inoculated B-16 melanoma = assay: Distribution of tumor cells by cell cycle phases (DNA content); format: in vivo, mice; settings: 0.5 mg/kg intragastrically daily for 10 days
Method: Tests were done on inoculated B-16 melanoma. The effect of Dicarbamine on the distribution of tumor cells was studied on the basis of DNA content at different times following administration of the preparation. From day 6 after the tumor inoculation mice for 10 days were daily intragastrically given with 0.5 mg/kg Dicarbamine. Animals were sacrificed with subsequent investigation of tumor material at days 10, 12, 16 and 18 after inoculation, i.e. days 5 and 7 respectively after Dicarbamine administration as well as in 2 and 4 days after termination of Dicarbamine 10-day dosing.

[1] = Peripheral blood leukocytes formula under Cyclophosphamide; format: in vivo, mice; settings: mouse, in vivo
Excerpt: Two groups of mice are used.

[2] = Complete blood analysis of individual ovarian cancer patients; format: in vivo, human; settings: for Platelets: in 10^9/L (unit assumed)
Method: (§1) The effect of Dicarbamine was studied in 13 patients with stage III-IV ovarian cancer who underwent 77 courses of the chemotherapy according to the scheme: 400 mg/m^2 Carboplatin i.v. drop-wise, once +600 mg/m^2 Cyclophosphan i.v. drop-wise, once; the courses were repeated in 28 days. Dicarbamine was prescribed daily at dose 100 mg orally after meals beginning 5 days prior to the first course and then for three weeks. Dosing duration was 26 days, course dose being 2600 mg. Dicarbamine was given again 5 days prior to the second chemotherapy course, and dosing was continued for 21 days. Total duration of Dicarbamine intake during two the chemotherapy courses was 52 days.
Hematopoiesis parameters were assessed dynamically many times before and after conducted the chemotherapy (control) as well as dynamically before and after Dicarbamine dosing in the test group. Below hematopoiesis parameters in individual patients who received the chemotherapy according to the indicated scheme with Dicarbamine or without it are presented.

[3] = Hematological toxicity according to WHO in ovarian cancer patients; format: in vivo, human
Method: as §1
Hematological toxicity (leukopenia, neutropenia, thrombocytopenia) was assessed in 13 patients who received 77 courses of the chemotherapy with Dicarbamine as compared with the group of 7 patients who received 25-27 courses of the chemotherapy without Dicarbamine (control).

[4] = 1.0 mg/kg daily, 12 hours since withdrawal
[5] = 1.0 mg/kg daily, 24 hours since withdrawal
[6] = 1.0 mg/kg daily, 48 hours since withdrawal
[7] = with Dicarbamine, Day 0, before starting Dicarbamine
[8] = with Dicarbamine, Day 5, before starting course 1 of CT
[9] = with Dicarbamine, Day 21, after termination of Dicarbamine intake
[10] = with Dicarbamine, Day 33, before course 2 of CT
[11] = with Dicarbamine, course 2, Day 28 after course 1 of CT
[12] = with Dicarbamine, course 2, Day 33
[13] = with Dicarbamine, course 2, Day 54
[14] = with Dicarbamine, course 2, Day 61
[15] = vs chemotherapy without Dicarbamine

In the case of O=C(O)CCCC(=O)NCCc1c[nH]cn1 [Dicarbamine], the Apoptosis (M-6 melanoma; [4]) is reported as 0.1–0.2%, the Cells with pigment (M-6 melanoma; [4]) is reported as 2–3% and the Mitoses (M-6 melanoma; [4]) is reported as 3–5%. For the same compound, the Apoptosis (M-6 melanoma; [5]) was 0.2–0.3%, the Cells with pigment (M-6 melanoma; [5]) was 2–4% and the Mitoses (M-6 melanoma; [5]) was 3–5%. The Necrosis area (M-6 melanoma; [5]) was 7–9%, the Apoptosis (M-6 melanoma; [6]) was 0.2–0.3% and the Cells with pigment (M-6 melanoma; [6]) was 3–5%. For the same compound, the Mitoses (M-6 melanoma; [6]) was 3–5%, the Necrosis area (M-6 melanoma; [6]) was 8–10% and the Necrosis area (M-6 melanoma; 1.0 mg/kg intragastrically daily up to 15 days, 12 hours since withdrawal) was 6–7%. For the same compound, the “increase in the portion of IIG^2 cells” value (inoculated B-16 melanoma) was 12-14%, the “increase of the portion of interphase tumor cells (IIG^1)” value (inoculated B-16 melanoma) was “≈ 25%” and the “portion of proliferating cells (constant)” value (inoculated B-16 melanoma) was “≈ 30%”. For the same compound, the Myelocytes [1] was 0 in mm^3, the Leukocytes ([2]; chemotherapy + Dicarbamine 100 mg daily, individual patients, course 1, Day 0, before starting Dicarbamine) was 5.9 10^9/l and 7.4 10^9/l and 6.6 10^9/l and the “timing of the third course of CT” value ([2]; chemotherapy with Dicarbamine, individual patients) was “in time; also recorded: at term”. For the same compound, the Neutrophils [2, 7] was 4.2 10^9/l and 5.7 10^9/l and 5.0 10^9/l, the Platelets [2, 7] was 170 and 174 and the Leukocytes [2, 8] was 5.5 10^9/l and 7.2 10^9/l and 5.9 10^9/l. For the same compound, the Neutrophils [2, 8] was 4.0 10^9/l and 5.0 10^9/l and 4.2 10^9/l, the Platelets [2, 8] was 164 and 165 and 172 and the Leukocytes [2, 9] was 4.7 10^9/l and 6.6 10^9/l and 5.5 10^9/l. For the same compound, the Neutrophils [2, 9] was 3.3 10^9/l and 5.2 10^9/l and 4.4 10^9/l, the Platelets [2, 9] was 160 and 162 and 166 and the Leukocytes [2, 10] was 4.0 10^9/l and 5.2 10^9/l and 5.0 10^9/l. For the same compound, the Neutrophils [2, 10] was 2.9 10^9/l and 3.8 10^9/l and 3.4 10^9/l, the Platelets [2, 10] was 158 and 167 and 164 and the Neutrophils [2, 11] was 3.2 10^9/l and 5.2 10^9/l and 3.0 10^9/l. The Leukocytes ([2]; with Dicarbamine, course 2, Day 28 after course 1 of CT, before starting Dicarbamine) was 4.9 10^9/l and 7.8 10^9/l and 5.6 10^9/l, the Platelets [2, 11] was 180 and 165 and 170 and the Neutrophils [2, 12] was 3.3 10^9/l and 6.0 10^9/l and 3.2 10^9/l. For the same compound, the Leukocytes ([2]; with Dicarbamine, course 2, Day 33, before starting course of CT) was 5.0 10^9/l and 8.2 10^9/l and 5.8 10^9/l, the Platelets [2, 12] was 170 and 160 and the Neutrophils [2, 13] was 3.1 10^9/l and 6.2 10^9/l and 3.4 10^9/l. The Leukocytes ([2]; with Dicarbamine, course 2, Day 54, after termination of Dicarbamine intake) was 4.2 10^9/l and 7.6 10^9/l and 5.7 10^9/l, the Platelets [2, 13] was 160 and 162 and 176 and the Neutrophils [2, 14] was 3.0 10^9/l and 5.8 10^9/l and 3.2 10^9/l. The Leukocytes ([2]; with Dicarbamine, course 2, Day 61, before course 3 of CT) was 4.2 10^9/l and 7.2 10^9/l and 5.5 10^9/l, the Platelets [2, 14] was 160 and 157 and 165 and the Leukopenia ([3]; WHO degree 0) was 7.7%. The “Leukopenia, number” value ([3]; WHO degree 0) was 6, the Neutropenia ([3]; WHO degree 0) was 31.3% and the “Neutropenia, number” value ([3]; WHO degree 0) was 21. The Thrombocytopenia ([3]; WHO degree 0) was 35.5%, the “Thrombocytopenia, number” value ([3]; WHO degree 0) was 27 and the Leukopenia ([3]; WHO degree I) was 23.3%. For the same compound, the “Leukopenia, number” value ([3]; WHO degree I) was 18, the Neutropenia ([3]; WHO degree I) was 17.9% and the “Neutropenia, number” value ([3]; WHO degree I) was 12. The Thrombocytopenia ([3]; WHO degree I) was 42.1%, the “Thrombocytopenia, number” value ([3]; WHO degree I) was 32 and the Leukopenia ([3]; WHO degree II) was 55.8%. The “Leukopenia, number” value ([3]; WHO degree II) was 43, the Neutropenia ([3]; WHO degree II) was 34.3% and the “Neutropenia, number” value ([3]; WHO degree II) was 23. For the same compound, the Thrombocytopenia ([3]; WHO degree II) was 13.1%, the “Thrombocytopenia, number” value ([3]; WHO degree II) was 10 and the Leukopenia ([3]; WHO degree III) was 12.9%. The “Leukopenia, number” value ([3]; WHO degree III) was 10, the Neutropenia ([3]; WHO degree III) was 7.4% and the “Neutropenia, number” value ([3]; WHO degree III) was 5. The Thrombocytopenia ([3]; WHO degree III) was 7.8%, the “Thrombocytopenia, number” value ([3]; WHO degree III) was 6 and the Leukopenia ([3]; WHO degree III + IV) was 12.9%. The “Leukopenia, number” value ([3]; WHO degree III + IV) was 10, the Neutropenia ([3]; WHO degree III + IV) was 16.4% and the “Neutropenia, number” value ([3]; WHO degree III + IV) was 11. For the same compound, the Thrombocytopenia ([3]; WHO degree III + IV) was 9.1%, the “Thrombocytopenia, number” value ([3]; WHO degree III + IV) was 7 and the “Leukopenia, number” value ([3]; WHO degree IV) was 0. For the same compound, the Neutropenia ([3]; WHO degree IV) was 8.9%, the “Neutropenia, number” value ([3]; WHO degree IV) was 6 and the Thrombocytopenia ([3]; WHO degree IV) was 1.3%. For the same compound, the “Thrombocytopenia, number” value ([3]; WHO degree IV) was 1, the “decrease of hematological toxicity on the basis of leukopenia” value [3, 15] was 1.8 fold and the “decrease of hematological toxicity on the basis of neutropenia” value [3, 15] was 2.6 fold. For the same compound, the “decrease of hematological toxicity on the basis of thrombocytopenia” value [3, 15] was 2.2 fold, the Terms of death (100 + 15 mg/kg) was “no” and the Total leukocyte number (100 + 15 mg/kg, day 0) was 11.50 ± 2.80 thousand in mm^3. It also gave a Total leukocyte number (100 + 15 mg/kg, day 3) of 4.04 ± 0.44 thousand in mm^3, a Total leukocyte number (100 + 15 mg/kg, day 5) of 10.40 ± 1.59 thousand in mm^3 and a Total leukocyte number (100 + 15 mg/kg, day 7) of 14.80 ± 1.76 thousand in mm^3. The Total leukocyte number (100 + 15 mg/kg, day 21) was 11.80 ± 1.34 thousand in mm^3, the Terms of death (200 + 30 mg/kg) was 10 and the Total leukocyte number (200 + 30 mg/kg, day 3) was 3.10 ± 0.70 thousand in mm^3. The Total leukocyte number (200 + 30 mg/kg, day 5) was 12.80 ± 1.37 thousand in mm^3, the Total leukocyte number (200 + 30 mg/kg, day 7) was 15.30 ± 1.26 thousand in mm^3 and the Total leukocyte number (200 + 30 mg/kg, day 21) was 12.30 ± 0.89 thousand in mm^3. It also gave a Total leukocyte number (cytostatic doses 200 + 30 mg/kg (Dicarbamine group: 0.5 mg/kg daily 20 days), day 0) of 11.50 ± 2.80 thousand in mm^3.
